Read-outs that look alike come from different tables or passages of the source. Marks after values point to notes of the source that are not given here.
Experiments:
[1] = Storage stability of benzoylacetate salts and their corresponding acid (HPLC or gravimetric); type: physicochemical; conditions: for % relative to initial sample amount (by HPLC): stored in freezer (ca −18° C.)
Method: (§1) A 0.2 M solution of ethyl benzoyl acetate (90%, Sigma Aldrich) in 0.5 M NaOH (aq) was prepared at room temperature and stirred for typically 5-24 hours, still at room temperature. After this time a major part of the ethyl benzoyl acetate had been transformed into dissolved sodium benzoyl acetate, as evidenced by monitoring the reaction by analysis of samples by reversed phase HPLC. Some acetophenone and remaining ethyl benzoyl acetate were typically present in the samples, but in minor amounts. The method employed a C8 column with an inner diameter of 150×4.6 mm and 5 micron particles. The mobile phase consisted of 400 ml deionized water+600 ml acetonitrile+0.196 g H3PO4 (85%)+2.760 g NaH2PO4*H2O. The flow rate was set to 1.0 mL/min and UV detection at 254 nm was employed for analysis of the compounds ethylbenzoylacetate (precursor), benzoylacetate (model prodrug) and acetophenone (model drug).
The storage stability of the sodium and calcium salts of benzoylacetate, and of benzoylacetic acid, in solid form, and in aqueous solutions, was investigated by storage of samples under various conditions (see Table 3a above) with regular HPLC- or gravimetric measurements of the samples from time to time. Samples denoted “neutralized” were prepared from a solution prepared as described in Example 1, which was neutralized with diluted HCl after performing the steps in Example 1.
From the data it can be concluded that the best storage stability at room temperature is obtained by storage in the form of the calcium salt.

[2] = Sustained release of acetophenone in vitro in model blood electrolyte solution at 37° C.; type: physicochemical; conditions: for Concentration of sodium benzoyl acetate model prodrug in sample: model blood electrolyte solution pH 7.4
Method: as §1
Ethyl benzoyl acetate was saponified according to the description in Example 1, and after 7 hours a solution containing about 0.2 M of the sodium salt of benzoyl acetate was obtained.

[3] = pH 7

In the case of O=C([O-])CC(=O)c1ccccc1.[Na+] [sodium benzoylacetate], the “% relative to sample amount remaining after 2 days (by HPLC)” value (shortened to “% relative to sample amount remaining”) ([1]; Alkaline solution of Na-benzoyl acetate from Example 1, stored at room T, storage time 2 days) is reported as 100.0%, the “% relative to sample amount remaining” value ([1]; Alkaline solution of Na-benzoyl acetate from Example 1, stored at room T, storage time 8 days) is reported as 66.2% and the “% relative to sample amount remaining” value ([1]; Alkaline solution of Na-benzoyl acetate from Example 1, stored at room T, storage time 23 days) is reported as 10.0%. For the same compound, the “% relative to sample amount remaining” value ([1]; Neutralized solution of Na-benzoyl acetate from Example 1 (pH 7.1), at room T, storage time 2 days) was 100.0%, the “% relative to sample amount remaining” value ([1]; Neutralized solution of Na-benzoyl acetate from Example 1 (pH 7.1), at room T, storage time 8 days) was 52.0% and the “% relative to sample amount remaining” value ([1]; Neutralized solution of Na-benzoyl acetate from Example 1 (pH 7.1), at room T, storage time 23 days) was 8.9%. For the same compound, the “% relative to sample amount remaining” value ([1]; Solid Na-salt, neutralized, 30-50% RH at room T, storage time 2 days) was 100.0%, the “% relative to sample amount remaining” value ([1]; Solid Na-salt, neutralized, 30-50% RH at room T, storage time 8 days) was 84.8% and the “% relative to sample amount remaining” value ([1]; Solid Na-salt, neutralized, 30-50% RH at room T, storage time 23 days) was 33.4%. For the same compound, the “% of absolute amount expected to be present in sample (by HPLC)” value (“% of absolute amount expected” for short) ([1]; Solid Na-salt, neutralized, 30-50% RH at room T, storage time 185 days) was 1.3*** %, the “% of absolute amount expected” value ([1]; Solid Na-salt, neutralized, stored at 6° C., storage time 0 days) was 103.1% and the “% of absolute amount expected” value ([1]; Solid Na-salt, neutralized, stored at 6° C., storage time 2 days) was 112.6%. The “% of absolute amount expected” value ([1]; Solid Na-salt, neutralized, stored at 6° C., storage time 5 days) was 109.2%, the “% of absolute amount expected” value ([1]; Solid Na-salt, neutralized, stored at 6° C., storage time 8 days) was 102.0% and the “% of absolute amount expected” value ([1]; Solid Na-salt, neutralized, stored at 6° C., storage time 12 days) was 100.7%. For the same compound, the “% of absolute amount expected” value ([1]; Solid Na-salt, neutralized, stored at 6° C., storage time 16 days) was 98.5%, the “% of absolute amount expected” value ([1]; Solid Na-salt, neutralized, stored at 6° C., storage time 21 days) was 81.9% and the “% of absolute amount expected” value ([1]; Solid Na-salt, neutralized, stored at 6° C., storage time 37 days) was 74.6%. For the same compound, the “% of absolute amount expected” value ([1]; Solid Na-salt, neutralized, stored at 6° C., storage time 49 days) was 72.3%, the “% of absolute amount expected” value ([1]; Solid Na-salt, neutralized, stored at 60° C., storage time 0.02 days) was 77.2% and the “% of absolute amount expected” value ([1]; Solid Na-salt, neutralized, stored at 60° C., storage time 0.8 days) was 10.7%. For the same compound, the “% of absolute amount expected” value ([1]; Solid Na-salt, neutralized, stored at 60° C., storage time 9.1 days) was 3.6%, the “% relative to initial sample amount (by HPLC)” value ([1]; Solid Na-salt, neutralized, storage time 0 days) was 100% and the “% relative to initial sample amount (by HPLC)” value ([1]; Solid Na-salt, neutralized, storage time 2 days) was 100%. The “% relative to initial sample amount (by HPLC)” value ([1]; Solid Na-salt, neutralized, storage time 5 days) was 124%, the “% relative to initial sample amount (by HPLC)” value ([1]; Solid Na-salt, neutralized, storage time 8 days) was 106% and the “% relative to initial sample amount (by HPLC)” value ([1]; Solid Na-salt, neutralized, storage time 12 days) was 112%. The “% relative to initial sample amount (by HPLC)” value ([1]; Solid Na-salt, neutralized, storage time 16 days) was 106%, the “% relative to initial sample amount (by HPLC)” value ([1]; Solid Na-salt, neutralized, storage time 21 days) was 101% and the “% relative to initial sample amount (by HPLC)” value ([1]; Solid Na-salt, neutralized, storage time 37 days) was 105%. The “% relative to initial sample amount (by HPLC)” value ([1]; Solid Na-salt, neutralized, storage time 49 days) was 117%, the “% relative to sample amount remaining” value ([1]; Solid Na-salt, non neutralized, 30-50% RH at room T, storage time 2 days) was 100.0% and the “% relative to sample amount remaining” value ([1]; Solid Na-salt, non neutralized, 30-50% RH at room T, storage time 8 days) was 46.8%. The “% relative to sample amount remaining” value ([1]; Solid Na-salt, non neutralized, 30-50% RH at room T, storage time 23 days) was 12.4%, the half-life at 2 mM ([2]; model blood electrolyte solution pH 7.4, 37° C., read-out: estimated half-life (converted)) was about 20 h and the “Concentration of sodium benzoyl acetate model prodrug in sample” value (“Concentration” below) ([2]; Time @ 37° C. 0.42) was 2660 µM. For the same compound, the “Concentration” value ([2]; Time @ 37° C. 2.25) was 2300 µM, the “Concentration” value ([2]; Time @ 37° C. 3.17) was 2440 µM and the “Concentration” value ([2]; Time @ 37° C. 4.17) was 2400 µM. For the same compound, the “Concentration” value ([2]; Time @ 37° C. 6.17) was 1710 µM, the “Concentration” value ([2]; Time @ 37° C. 8.25) was 1960 µM and the “Concentration” value ([2]; Time @ 37° C. 10.17) was 1690 µM. For the same compound, the “Concentration” value ([2]; Time @ 37° C. 12.17) was 1590 µM, the “Concentration” value ([2]; Time @ 37° C. 13.92) was 1520 µM and the “Concentration” value ([2]; Time @ 37° C. 17.92) was 1430 µM. For the same compound, the “Concentration” value ([2]; Time @ 37° C. 21.17) was 1310 µM, the “Concentration” value ([2]; Time @ 37° C. 24.92) was 1020 µM and the “Concentration” value ([2]; Time @ 37° C. 31.33) was 940 µM. The “Concentration” value ([2]; Time @ 37° C. 48.75) was 530 µM, the “Concentration” value ([2]; Time @ 37° C. 76.33) was 200 µM and the Solubility [3] was “≧200 mM”. It also gave a Solubility (physchem; pH 7, water, Solubility) of over 200 mM and a Solubility (physchem; water, Solubility (mM, as acetophenone equivalents)) of at least 200 mM.

Reference: patent US20120065179A1, “PRODRUG COMPRISING BETA-KETO CARBOXYLIC ACID, BETA-KETO CARBOXYLIC ACID SALT OR BETA-KETO CARBOXYLIC ACID ESTER FOR DRUG DELIVERY” (YKI, Ytemiska Institutet AB, priority 2009, published 2012)
